For 23 compounds, EC50 and IC50 results are on record in US20090155209A1, “NOVEL MACROCYCLIC INHIBITORS OF HEPATITIS C VIRUS REPLICATION” (priority 2007, published 2009).

A value given as a limit tells only on which side of the number the result lay.

The target of assay [1] is T1, NS3-NS4 (Hepatitis C virus genotype 1a, UniProt P27958). In words: cell-based. The note with it: EC50, NS3-NS4 activity.
Assay [2] has as its target T1, NS3-NS4. In words: NS3-NS4 activity, IC50 (Example 37, Table 8). In kind it is biochemical.

T1 sequence (P27958 1027-1657): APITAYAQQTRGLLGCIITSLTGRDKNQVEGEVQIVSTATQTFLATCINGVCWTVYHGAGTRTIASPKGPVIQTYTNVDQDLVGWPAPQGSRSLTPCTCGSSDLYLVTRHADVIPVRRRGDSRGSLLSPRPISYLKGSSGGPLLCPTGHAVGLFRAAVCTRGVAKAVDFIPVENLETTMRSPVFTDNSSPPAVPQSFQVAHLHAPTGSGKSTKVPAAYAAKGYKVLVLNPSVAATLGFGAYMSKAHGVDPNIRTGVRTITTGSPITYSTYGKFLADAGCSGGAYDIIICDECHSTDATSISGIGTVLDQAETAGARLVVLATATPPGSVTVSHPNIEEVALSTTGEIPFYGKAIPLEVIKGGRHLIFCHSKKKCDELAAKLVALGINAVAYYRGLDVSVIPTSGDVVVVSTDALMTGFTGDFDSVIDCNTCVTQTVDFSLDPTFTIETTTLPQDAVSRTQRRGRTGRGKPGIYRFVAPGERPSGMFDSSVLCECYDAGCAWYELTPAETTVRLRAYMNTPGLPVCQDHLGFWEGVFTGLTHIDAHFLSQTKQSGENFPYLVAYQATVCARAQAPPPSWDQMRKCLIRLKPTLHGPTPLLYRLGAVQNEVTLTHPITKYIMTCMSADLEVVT
T1 sequence (P27958 1658-1711): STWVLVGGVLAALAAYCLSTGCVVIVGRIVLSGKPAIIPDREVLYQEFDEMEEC

For the compound `CC(C)(C)OC(=O)N[C@H]1CCCCC[C@H]2C[C@H]2[C@@H]2C[C@@]2(C(=O)NS(=O)(=O)C2(C)CC2)NC(=O)[C@@H]2C[C@@H](OC(=O)N3Cc4cccc(F)c4C3)CN2C1=O` [Compound 903], the EC50 in assay [1] was < 100 nM. The half-inhibitory concentration (IC50) in assay [2] is < 100 nM.

Regarding `CC(C)(C)OC(=O)N[C@H]1CCCCC/C=C\[C@@H]2C[C@@]2(C(=O)NS(=O)(=O)Cc2cc(F)ccc2F)NC(=O)[C@@H]2C[C@@H](OC(=O)N3Cc4cccc(F)c4C3)CN2C1=O` [Compound 520], the EC50 in assay [1] is < 100 nM. The half-inhibitory concentration (IC50) in assay [2] was < 100 nM.

Take `CN(C(=O)N[C@H]1CCCCC/C=C\[C@@H]2C[C@@]2(C(=O)NS(=O)(=O)c2ccccc2)NC(=O)[C@@H]2C[C@@H](OC(=O)N3Cc4cccc(F)c4C3)CN2C1=O)C(C)(C)C` [Compound 303, (2R,6S,13aS,14aR,16aS,Z)-6-(3-tert-butyl-3-methylureido)-5,16-dioxo-14a-(phenylsulfonylcarbamoyl)-1,2,3,5,6,7,8,9,10,11,13a,14,14a,15,16,16a-hexadecahydrocyclopropa[e]pyrrolo[1,2-a][1,4]diazacyclopentadecin-2-yl 4-fluoroisoindoline-2-carboxylate]: the EC50 in assay [1] was < 100 nM. Further, in assay [2], the half-maximal inhibitory concentration (IC50) was < 100 nM.

As to `CN(C(=O)N[C@H]1CCCCC/C=C\[C@@H]2C[C@@]2(C(=O)NS(=O)(=O)C2(C)CC2)NC(=O)[C@@H]2C[C@@H](OC(=O)N3Cc4cccc(F)c4C3)CN2C1=O)C(C)(C)C` [Compound 440], the EC50 in assay [1] is < 100 nM. The 50% inhibitory concentration (IC50) in assay [2] was < 100 nM.

Turning to `O=C1N[C@]2(C(=O)NS(=O)(=O)C3CC3)C[C@H]2/C=C\CCCCC[C@H](NC(=O)C2(C(F)(F)F)CC2)C(=O)N2C[C@H](OC(=O)N3Cc4cccc(F)c4C3)C[C@@H]12` [Compound 403, (2R,6S,13aS,14aR,16aS,Z)-14a-(cyclopropylsulfonylcarbamoyl)-5,16-dioxo-6-(1-(trifluoromethyl)cyclopropanecarboxamido)-1,2,3,5,6,7,8,9,10,11,13a,14,14a,15,16,16a-hexadecahydrocyclopropa[e]pyrrolo[1,2-a][1,4]diazacyclopentadecin-2-yl 4-fluoroisoindoline-2-carboxylate], the EC50 in assay [1] was < 100 nM. Further, the half-inhibitory concentration (IC50) in assay [2] was < 100 nM.

The compound `CC(C)(C)OC(=O)N[C@H]1CCCCC/C=C\[C@@H]2C[C@@]2(C(=O)NOc2ccc(Cl)cc2)NC(=O)[C@@H]2C[C@@H](OC(=O)N3Cc4cccc(F)c4C3)CN2C1=O` [Compound 707] came in with an EC50 in assay [1] of 1000 to 10000 nM. Besides, in assay [2], the half-inhibitory concentration (IC50) was < 100 nM.

On to `CCC(C)(C)OC(=O)N[C@H]1CCCCC/C=C\[C@@H]2C[C@@]2(C(=O)NS(=O)(=O)c2ccc(Cl)cc2)NC(=O)[C@@H]2C[C@@H](OC(=O)N3Cc4cccc(F)c4C3)CN2C1=O` [Compound 336], for which the concentration for a half-maximal effect (EC50) in assay [1] was < 100 nM. Also, the IC50 in assay [2] is < 100 nM.

For `CC(C)(C)OC(=O)N[C@H]1CCCCC/C=C\[C@@H]2C[C@@]2(C(=O)NS(=O)(=O)Cc2ccccc2Cl)NC(=O)[C@@H]2C[C@@H](OC(=O)N3Cc4cccc(F)c4C3)CN2C1=O` [Compound 510], the EC50 in assay [1] is < 100 nM. Also, the concentration for half-maximal inhibition (IC50) in assay [2] is < 100 nM.

Take `CC(C)(C)OC(=O)N[C@H]1CCCCC/C=C\[C@@H]2C[C@@]2(C(=O)NS(=O)(=O)c2cc(F)cc(F)c2)NC(=O)[C@@H]2C[C@@H](OC(=O)N3Cc4cccc(F)c4C3)CN2C1=O` [Compound 309]: the EC50 in assay [1] was < 100 nM. Moreover, the half-maximal inhibitory concentration (IC50) in assay [2] was < 100 nM.

Consider `Cc1ccc(ONC(=O)[C@@]23C[C@H]2/C=C\CCCCC[C@H](NC(=O)OC(C)(C)C)C(=O)N2C[C@H](OC(=O)N4Cc5cccc(F)c5C4)C[C@H]2C(=O)N3)cc1C` [Compound 714], for which, in assay [1], the concentration for a half-maximal effect (EC50) lay in the range of 1000 to 10000 nM. Also, in assay [2], the IC50 is < 100 nM.

As for `CC(C)(C)OC(=O)N[C@H]1CCCCCCC[C@@H]2C[C@@]2(C(=O)NOCC2CC2)NC(=O)[C@@H]2C[C@@H](OC(=O)N3Cc4cccc(F)c4C3)CN2C1=O` [Compound 813], in assay [1], the EC50 is < 100 nM. In addition, in assay [2], the half-maximal inhibitory concentration (IC50) was < 100 nM.

Compound `CC(=O)O[C@@H]1C[C@H]2C(=O)N[C@]3(C(=O)NS(=O)(=O)C4CC4)C[C@H]3/C=C\CCCCC[C@H](Nc3nc(-c4ccc(F)cc4)c(C)s3)C(=O)N2C1` [Compound 239] yielded a concentration for a half-maximal effect (EC50) in assay [1] of 100 to 1000 nM. Moreover, the IC50 in assay [2] was < 100 nM.

`CC(C)(C)OC(=O)N[C@H]1CCCCC/C=C\[C@@H]2C[C@@]2(C(=O)NS(=O)(=O)Cc2cc(Cl)ccc2Cl)NC(=O)[C@@H]2C[C@@H](OC(=O)N3Cc4cccc(F)c4C3)CN2C1=O` [Compound 525] showed an EC50 in assay [1] of 100 to 1000 nM. In addition, the half-maximal inhibitory concentration (IC50) in assay [2] is < 100 nM.

As to `CN(C(=O)N[C@H]1CCCCC/C=C\[C@@H]2C[C@@]2(C(=O)NS(=O)(=O)c2ccc(Cl)cc2)NC(=O)[C@@H]2C[C@@H](OC(=O)N3Cc4cccc(F)c4C3)CN2C1=O)C(C)(C)C` [Compound 361], the EC50 in assay [1] was < 100 nM. For the same compound, the IC50 in assay [2] is < 100 nM.

As to `CC(C)COC(=O)N[C@H]1CCCCC/C=C\[C@@H]2C[C@@]2(C(=O)NS(=O)(=O)c2ccc(Cl)cc2)NC(=O)[C@@H]2C[C@@H](OC(=O)N3Cc4cccc(F)c4C3)CN2C1=O` [Compound 341], the 50% effective concentration (EC50) in assay [1] is < 100 nM. In assay [2], the 50% inhibitory concentration (IC50) was < 100 nM.

Turning to `CC(C)(C)OC(=O)N[C@H]1CCCCC/C=C\[C@@H]2C[C@@]2(C(=O)NS(=O)(=O)C2(C)CC2)NC(=O)[C@@H]2C[C@@H](OC(=O)N3Cc4cccc(Cl)c4C3)CN2C1=O` [Compound 445], in assay [1], the EC50 was < 100 nM. Further, in assay [2], the half-inhibitory concentration (IC50) was < 100 nM.

In assay [1], `CC(C)(C)OC(=O)N[C@H]1CCCCC/C=C\[C@@H]2C[C@@]2(C(=O)NOc2ccc(-c3ccccc3)cc2)NC(=O)[C@@H]2C[C@@H](OC(=O)N3Cc4cccc(F)c4C3)CN2C1=O` [Compound 710] displayed a 50% effective concentration (EC50) of 1000 to 10000 nM. Moreover, the IC50 in assay [2] is < 100 nM.

For the compound `O=C1N[C@]2(C(=O)NS(=O)(=O)C3CC3)C[C@H]2/C=C\CCCCC[C@H](NC(=O)N2CCC(F)(F)C2)C(=O)N2C[C@H](OC(=O)N3Cc4cccc(F)c4C3)C[C@@H]12` [Compound 416], in assay [1], the EC50 fell in the range of 100 to 1000 nM. Also, the IC50 in assay [2] was < 100 nM.

Take `CC(C)(C)OC(=O)N[C@H]1CCCCC/C=C\[C@@H]2C[C@@]2(C(=O)NS(=O)(=O)c2c(Cl)cccc2Cl)NC(=O)[C@@H]2C[C@@H](OC(=O)N3Cc4cccc(F)c4C3)CN2C1=O` [Compound 311]: in assay [1], the half-maximal effective concentration (EC50) was 100 to 1000 nM. Moreover, in assay [2], the concentration for half-maximal inhibition (IC50) is < 100 nM.

In the case of `O=C1N[C@]2(C(=O)NS(=O)(=O)C3CC3)C[C@H]2/C=C\CCCCC[C@H](Nc2nc(-c3ccc(OC(F)(F)F)cc3)cs2)C(=O)N2C[C@H](OC(=O)N3Cc4cccc(F)c4C3)C[C@@H]12` [Compound 222], the EC50 in assay [1] is < 100 nM. The half-inhibitory concentration (IC50) in assay [2] was < 100 nM.

As for `CC(C)(C)OC(=O)N[C@H]1CCCCC[C@@H]2C[C@@H]2[C@@H]2C[C@@]2(C(=O)NS(=O)(=O)C2CC2)NC(=O)[C@@H]2C[C@@H](OC(=O)N3Cc4cccc(F)c4C3)CN2C1=O` [Compound 902], the EC50 in assay [1] was < 100 nM. For the same compound, the concentration for half-maximal inhibition (IC50) in assay [2] is < 100 nM.

With `O=C1N[C@]2(C(=O)NS(=O)(=O)C3CC3)C[C@H]2/C=C\CCCCC[C@H](Nc2nc(-c3ccc(F)cc3F)cs2)C(=O)N2C[C@H](OC(=O)N3Cc4cccc(F)c4C3)C[C@@H]12` [Compound 219], in assay [1], the half-maximal effective concentration (EC50) is < 100 nM. For the same compound, the IC50 in assay [2] is < 100 nM.

`COc1cc(CS(=O)(=O)NC(=O)[C@@]23C[C@H]2CCCCCCC[C@H](NC(=O)OC(C)(C)C)C(=O)N2C[C@H](OC(=O)N4Cc5cccc(F)c5C4)C[C@H]2C(=O)N3)cc(OC)c1` [Compound 632] displayed a 50% effective concentration (EC50) in assay [1] of 100 to 1000 nM. Besides, the IC50 in assay [2] was < 100 nM.
